Test results: patent US9545413B2, “Methods of forming ciclopirox or derivatives thereof in a subject by administration of prodrug” (The University of Kansas, priority 2010, dated 2017)
Values joined by “and” are separate entries in the source; they are usually repeats but may differ in a detail not shown here. Equal entries are not always repeated. Marks after values point to notes of the source that are not given here.

Experiments:
[1] = Mouse plasma ciclopirox pharmacokinetics after 10 mg/kg IV bolus; assay type: in vivo; conditions: for Plasma Ciclopirox Concentrations: individual animals A-F, phosphate disodium salt
Experimental: The plasma ciclopirox concentrations in (ng/mL) were determined following bolus administration of ciclopirox-POM prodrug at a 10 mg/kg IV bolus in a mouse model. Time points where data collected are shown in Table 1 to be at 5, 15, 30, 60, 90, 120, 180, and 240 minutes along with the data. […] The IV bolus formulation for prodrug was in 25 mM phosphate buffer.
(§1) Time points where data collected are shown in Table 1 to be at 5, 15, 30, 60, 90, 120, 180, and 240 minutes along with the data.
Additionally, mouse intravenous dose pharmacokinetics were determined.
(§2) The IV bolus and oral administrations are described above.

[2] = Mouse plasma ciclopirox pharmacokinetics after 30 mg/kg oral dose; assay type: in vivo
Experimental: The plasma ciclopirox (i.e., CPX) concentrations in (ng/mL) were determined following bolus administration of ciclopirox-POM prodrug at a 30 mg/kg orally in a mouse model. Time points where data collected are shown in Table 3 to be at 5, 15, 30, 60, 90, 120, 180, and 240 minutes along with the data. […] The oral formulation is a composition having Orasweet SF along with the […].
as §1
Additionally, mouse oral dose pharmacokinetics were determined.
as §2

[3] = Detection of prodrug in plasma and urine after administration; assay type: in vivo
From the text: Accordingly, ciclopirox is readily bioavailable when given IV as the prodrug. […] Based on the data, it is reasonable to believe that the ciclopirox-POM prodrug is rapidly converted to ciclopirox.
Accordingly, ciclopirox is readily bioavailable when given IV as the prodrug. […] Based on the data, it is reasonable to believe that the ciclopirox-POM prodrug is rapidly converted back to ciclopirox.

[4] = tested on: NMIBC and MIBC cell lines; assay: Anticancer activity in bladder cancer cell lines; assay type: cell-based
From the text: (§3) Bladder cancer presents as two diseases, NMIBC and muscle invasive bladder cancer (MIBC). Approximately three-fourths of newly diagnosed bladder cancer patients present with NMIBC. NMIBC, as it invades into bladder muscle, becomes MIBC. MIBC often metastasizes, requiring systemically administered chemotherapy agents. […] The ciclopirox from ciclopirox-POM prodrug delivery inhibits cell proliferation, colony formation, and spheroid formation in well characterized NMIBC and MIBC cell lines. Although that ciclopirox's fungicidal activity is mediated through its ability to chelate iron, and interrupt iron-dependent intracellular processes, ciclopirox in vitro anti-cancer activity in independent of commercially available iron chelators. […] Accordingly, ciclopirox-POM prodrug can be used in treatment of all forms of bladder cancer, and in cancer stem cells of many different cancers where the Notch signaling pathway is active.

[5] = tested on: Notch-1 signaling pathway; assay: Inhibition of Notch-1 signaling; assay type: cell-based; conditions: bladder cancer
From the text: The prodrug converts to the active ciclopirox compound that effectively suppresses stem cells in bladder cancer and specifically targets the Notch-1 signaling pathway. […] Suppressing Notch is a significant activity for the compound to inhibit bladder and other cancers where Notch signaling is active (e.g. colon cancer, osteosarcoma).
as §3

[6] = in vivo, iv, 10 mg/kg, Plasma Ciclopirox Concentrations
[7] = in vivo, iv, 10 mg/kg, Plasma Ciclopirox Concentrations, Mean
[8] = mouse, in vivo, po, 30 mg/kg, Plasma Ciclopirox Concentrations
[9] = mouse, in vivo, po, 30 mg/kg, Plasma Ciclopirox Concentrations, Mean
[10] = ciclopirox, mouse, 30 mg/kg oral

Structure (SMILES): Cc1cc(C2CCCCC2)n(O)c(=O)c1 [Ciclopirox Olamine, reference compound]
- Alpha rate constant ([1]; in vivo, iv, 10 mg/kg): 0.08802 min⁻¹
- Beta rate constant ([1]; in vivo, iv, 10 mg/kg): 0.01208 min⁻¹
- Vdbeta ([1]; in vivo, iv, 10 mg/kg): 4.5652 L/kg
- clearance ([1]; in vivo, iv, 10 mg/kg): 55.2 mL/min/kg
- AUC ([1]; in vivo, iv, 10 mg/kg, AUC (CPX AUC)): 2340 ng·h/mL
- half-life ([1]; in vivo, iv, 10 mg/kg, Alpha Half-life): 7.87 min
- half-life ([1]; in vivo, iv, 10 mg/kg, Beta Half-life): 57.4 min
- concentration at 5 min [1, 6]: 6090 ng/mL
- concentration at 60 min [1, 6]: 171 ng/mL
- concentration at 90 min [1, 6]: 45.2 ng/mL
- concentration at 120 min [1, 6]: 46.1 ng/mL
- concentration at 240 min [1, 6]: 12 ng/mL
- concentration at 5 min [1, 7]: 4880 ng/mL
- concentration at 15 min [1, 7]: 892 ng/mL
- concentration at 30 min [1, 7]: 354 ng/mL
- concentration at 60 min [1, 7]: 133 ng/mL
- concentration at 90 min [1, 7]: 58.7 ng/mL
- concentration at 120 min [1, 7]: 43.2 ng/mL
- concentration at 180 min [1, 7]: 25.2 ng/mL
- concentration at 240 min [1, 7]: 15.9 ng/mL
- bioavailability ([2]; mouse, in vivo, po): 21%
- AUC ([2]; mouse, in vivo, po, 30 mg/kg): 956 ng·h/mL
- Beta rate constant ([2]; mouse, in vivo, po, 30 mg/kg): 0.00916 min⁻¹
- CL/F ([2]; mouse, in vivo, po, 30 mg/kg): 405 mL/min/kg
- Cmax ([2]; mouse, in vivo, po, 30 mg/kg): 548 ng/mL
- Tmax ([2]; mouse, in vivo, po, 30 mg/kg): 15 min
- half-life ([2]; mouse, in vivo, po, 30 mg/kg): 75.7 min
- Plasma Ciclopirox Concentrations ([2]; mouse, in vivo, po, 30 mg/kg, 0 min): 0 ng/mL
- concentration at 0 min [2, 8]: 0 ng/mL
- concentration at 15 min [2, 8]: 478 ng/mL
- concentration at 30 min [2, 8]: 427 ng/mL
- concentration at 180 min [2, 8]: 78.2 ng/mL
- concentration at 240 min [2, 8]: 72.3 ng/mL
- concentration at 0 min [2, 9]: 0 ng/mL
- concentration at 15 min [2, 9]: 548 ng/mL
- concentration at 30 min [2, 9]: 449 ng/mL
- concentration at 60 min [2, 9]: 309 ng/mL
- concentration at 90 min [2, 9]: 260 ng/mL
- concentration at 120 min [2, 9]: 151 ng/mL
- concentration at 180 min [2, 9]: 80.1 ng/mL
- concentration at 240 min [2, 9]: 74.7 ng/mL

Structure (SMILES): Cc1cc(C2CCCCC2)n(OCOP(=O)([O-])[O-])c(=O)c1.[Na+].[Na+] [Ciclopirox-POM]
- Plasma Ciclopirox Concentrations ([1]; 10 mg/kg IV bolus, 5 min, 10 mg/kg): 7280 ng/mL and 7320 ng/mL and 6370 ng/mL and 9700 ng/mL and 8500 ng/mL and 8860 ng/mL
- Plasma Ciclopirox Concentrations, Mean ([1]; 10 mg/kg IV bolus, 5 min): 8005 ng/mL
- Plasma Ciclopirox Concentrations ([1]; 10 mg/kg IV bolus, 15 min, 10 mg/kg): 3310 ng/mL and 3180 ng/mL and 1520 ng/mL and 1370 ng/mL and 4010 ng/mL and 3190 ng/mL
- Plasma Ciclopirox Concentrations, Mean ([1]; 10 mg/kg IV bolus, 15 min): 2763.3 ng/mL
- Plasma Ciclopirox Concentrations ([1]; 10 mg/kg IV bolus, 30 min, 10 mg/kg): 994 ng/mL and 1200 ng/mL and 986 ng/mL and 1030 ng/mL and 1080 ng/mL and 452 ng/mL
- Plasma Ciclopirox Concentrations, Mean ([1]; 10 mg/kg IV bolus, 30 min): 957 ng/mL
- Plasma Ciclopirox Concentrations ([1]; 10 mg/kg IV bolus, 60 min, 10 mg/kg): 410 ng/mL and 259 ng/mL (2×) and 284 ng/mL and 409 ng/mL and 436 ng/mL
- Plasma Ciclopirox Concentrations, Mean ([1]; 10 mg/kg IV bolus, 60 min): 342.8 ng/mL
- Plasma Ciclopirox Concentrations ([1]; 10 mg/kg IV bolus, 90 min, 10 mg/kg): 97.6 ng/mL and 157 ng/mL and 74.2 ng/mL and 79.1 ng/mL and 162 ng/mL and 168 ng/mL
- Plasma Ciclopirox Concentrations, Mean ([1]; 10 mg/kg IV bolus, 90 min): 123 ng/mL
- Plasma Ciclopirox Concentrations ([1]; 10 mg/kg IV bolus, 120 min, 10 mg/kg): 58 ng/mL and 73.7 ng/mL and 57.9 ng/mL and 19.3 ng/mL and 71.7 ng/mL and 84.8 ng/mL
- Plasma Ciclopirox Concentrations, Mean ([1]; 10 mg/kg IV bolus, 120 min): 60.9 ng/mL
- Plasma Ciclopirox Concentrations ([1]; 10 mg/kg IV bolus, 180 min, 10 mg/kg): 18.1 ng/mL and 23 ng/mL and 19.5 ng/mL and 34.8 ng/mL and 19.7 ng/mL and 37.7 ng/mL
- Plasma Ciclopirox Concentrations, Mean ([1]; 10 mg/kg IV bolus, 180 min): 25.5 ng/mL
- Plasma Ciclopirox Concentrations ([1]; 10 mg/kg IV bolus, 240 min, 10 mg/kg): 13 ng/mL and 10 ng/mL (2×) and 15 ng/mL and 12 ng/mL and 8 ng/mL
- Plasma Ciclopirox Concentrations, Mean ([1]; 10 mg/kg IV bolus, 240 min): 11.1 ng/mL
- CPX Bioavailability Following Prodrug Administration ([1]; IV administration, prodrug compared to olamine salt): 1.143
- Alpha Half-life ([1]; ciclopirox, 10 mg/kg IV bolus): 9.84 min
- Alpha rate constant ([1]; ciclopirox, 10 mg/kg IV bolus): 0.07043 min⁻¹
- Beta Half-life ([1]; ciclopirox, 10 mg/kg IV bolus): 35.92 min
- Beta rate constant ([1]; ciclopirox, 10 mg/kg IV bolus): 0.01929 min⁻¹
- CL ([1]; ciclopirox, 10 mg/kg IV bolus): 48.275* mL/min/kg
- Vdbeta ([1]; ciclopirox, 10 mg/kg IV bolus): 2.502 L/kg
- Beta Half-life [2, 10]: 52.76 min
- Beta rate constant [2, 10]: 0.01316 min⁻¹
- CL/F [2, 10]: 722.06 mL/min/kg
- Cmax [2, 10]: 520.3 ng/mL
- Tmax [2, 10]: 15 min
- Bioavailability following oral administration ([2]; mice, oral administration): 12%
- Plasma Ciclopirox Concentrations ([2]; mouse, 30 mg/kg oral dose, 0 min, individual animals A-F): 0 ng/mL
- Plasma Ciclopirox Concentrations, Mean ([2]; mouse, 30 mg/kg oral dose, 0 min): 0 ng/mL
- Plasma Ciclopirox Concentrations ([2]; mouse, 30 mg/kg oral dose, 15 min, individual animals A-F, phosphate disodium salt, 30 mg/kg): 388 ng/mL and 646 ng/mL and 857 ng/mL and 245 ng/mL and 479 ng/mL and 507 ng/mL
- Plasma Ciclopirox Concentrations, Mean ([2]; mouse, 30 mg/kg oral dose, 15 min): 520.3 ng/mL
- Plasma Ciclopirox Concentrations ([2]; mouse, 30 mg/kg oral dose, 30 min, individual animals A-F, phosphate disodium salt, 30 mg/kg): 302 ng/mL and 252 ng/mL and 264 ng/mL and 317 ng/mL and 207 ng/mL and 342 ng/mL
- Plasma Ciclopirox Concentrations, Mean ([2]; mouse, 30 mg/kg oral dose, 30 min): 280.7 ng/mL
- Plasma Ciclopirox Concentrations ([2]; mouse, 30 mg/kg oral dose, 60 min, individual animals A-F, phosphate disodium salt, 30 mg/kg): 129 ng/mL and 404 ng/mL and 154 ng/mL and 229 ng/mL and 171 ng/mL and 207 ng/mL
- Plasma Ciclopirox Concentrations, Mean ([2]; mouse, 30 mg/kg oral dose, 60 min): 215.7 ng/mL
- Plasma Ciclopirox Concentrations ([2]; mouse, 30 mg/kg oral dose, 90 min, individual animals A-F, phosphate disodium salt, 30 mg/kg): 91 ng/mL and 66.8 ng/mL and 146 ng/mL and 137 ng/mL and 120 ng/mL and 80.3 ng/mL
- Plasma Ciclopirox Concentrations, Mean ([2]; mouse, 30 mg/kg oral dose, 90 min): 106.9 ng/mL
- Plasma Ciclopirox Concentrations ([2]; mouse, 30 mg/kg oral dose, 120 min, individual animals A-F, phosphate disodium salt, 30 mg/kg): 72.5 ng/mL and 60.6 ng/mL and 64.6 ng/mL and 81.4 ng/mL and 83.6 ng/mL
- Plasma Ciclopirox Concentrations, Mean ([2]; mouse, 30 mg/kg oral dose, 120 min): 72.5 ng/mL
- Plasma Ciclopirox Concentrations ([2]; mouse, 30 mg/kg oral dose, 180 min, individual animals A-F, phosphate disodium salt, 30 mg/kg): 36.8 ng/mL and 45.1 ng/mL and 59.1 ng/mL and 66.4 ng/mL and 44.9 ng/mL and 44 ng/mL
- Plasma Ciclopirox Concentrations, Mean ([2]; mouse, 30 mg/kg oral dose, 180 min): 49.4 ng/mL
- Plasma Ciclopirox Concentrations ([2]; mouse, 30 mg/kg oral dose, 240 min, individual animals A-F, phosphate disodium salt, 30 mg/kg): 9.51 ng/mL and 19 ng/mL (2×) and 14.7 ng/mL and 38.1 ng/mL
- Plasma Ciclopirox Concentrations, Mean ([2]; mouse, 30 mg/kg oral dose, 240 min): 20.1 ng/mL
- Foral ([2]; mouse, oral 30 mg/kg v. IV bolus 10 mg/kg of the same substance): 0.06686
- CPX Bioavailability Following Prodrug Administration ([2]; mouse, oral administration, prodrug compared to olamine salt): 0.5603
- Detection of the prodrug in plasma ([3]; following IV and oral administration): inability to detect
- Detection of the prodrug in plasma and urine ([3]; following IV, oral, subcutaneous and intraperitoneal administration): inability to detect

Structure (SMILES): Cc1cc(C2CCCCC2)n(O)c(=O)c1 [ciclopirox, 6-cyclohexyl-1-hydroxy-4-methylpyridin-2(1H)-one]
- Cell proliferation [4]: inhibits
- Colony formation [4]: inhibits
- Spheroid formation [4]: inhibits
- Notch-1 signaling pathway [5]: inhibits
